For eight compounds, IC50 and Edema ratio results are on record in ChEMBL document CHEMBL1146794, “Novel delta2-isoxazolines as group II phospholipase A2 inhibitors” (Bioorg Med Chem Lett, 2004).

Experiment [1] can be described thus: Inhibitory activity against group II Phospholipase A2 (PLA2) from Vipera russelli russelli venom. The arrangement: species or system Daboia russelii russelii.
The nature of experiment [2]: Compound (2.5 uM) was tested for edema inducing activity of group II PLA2 (1 ug) was determined in mice footpads. It counts as functional, Daboia russelii russelii.

SMILES strings stand for the structures.

Broadly, the IC50 is the point on the concentration scale where inhibition reaches its midpoint. For the compound `CCCCc1nc(C2=NOC(c3ccccc3)C2)c(Cl)[nH]1` (stereo unspecified), the IC50 in experiment [1] stood at 142 nM. `C[C@H]1[C@H](C)CC[C@]2(C(=O)O)CC[C@]3(C)C(=CC[C@@H]4[C@@]5(C)CC[C@H](O)C(C)(C)[C@@H]5CC[C@]43C)[C@H]12` [URSOLIC ACID]: in experiment [2], the Edema ratio is given as 102. The IC50 in experiment [1] was found to be 2.5 nM. Consider `CCCCc1nc(C2=NOC(C#N)C2)c(Cl)[nH]1` (stereo unspecified), for which the Edema ratio in experiment [2] is listed as 120. In experiment [1], the IC50 worked out at 96.4 nM. The like results for `CCCCc1nc(C2=NOC(C(=O)OCC)C2)c(Cl)[nH]1` (stereo unspecified) were, in that order, 116 and 86.2 nM.

Turning to `CCCCc1nc(C2=NOC(C(=O)Oc3ccccc3)C2)c(Cl)[nH]1` (stereo unspecified), in experiment [1], half-maximal inhibition (IC50) required 195 nM.

In experiment [1], `CCCCc1nc(C2=NOC(C(=O)OC)C2)c(Cl)[nH]1` (stereo unspecified) registered an IC50 of 250 nM. Still for that read-out and setting: for `CCCCc1nc(C2=NOC(CO)C2)c(Cl)[nH]1` (stereo unspecified) the value was 152 nM; for `CCCCc1nc(C2=NOC(CC(=O)OC)C2)c(Cl)[nH]1` (stereo unspecified), 209 nM.
